These results are taken from patent US11208400B2, “Substituted 6-(1H-pyrazol-1-yl)pyrimidin-4-amine derivatives and uses thereof” (Bayer Aktiengesellschaft, priority 2016, dated 2021).

One may read the pIC50 as −log10 of the IC50, conventionally taken in molar units.

pIC50: −log10 of the molar value. A value given as a limit tells only on which side of the number the result lay.

The assay has as its target T1, human Npt2a (Homo sapiens, UniProt Q06495).
T1 construct: expressed in transfected cells
T1 sequence (Q06495 1-639): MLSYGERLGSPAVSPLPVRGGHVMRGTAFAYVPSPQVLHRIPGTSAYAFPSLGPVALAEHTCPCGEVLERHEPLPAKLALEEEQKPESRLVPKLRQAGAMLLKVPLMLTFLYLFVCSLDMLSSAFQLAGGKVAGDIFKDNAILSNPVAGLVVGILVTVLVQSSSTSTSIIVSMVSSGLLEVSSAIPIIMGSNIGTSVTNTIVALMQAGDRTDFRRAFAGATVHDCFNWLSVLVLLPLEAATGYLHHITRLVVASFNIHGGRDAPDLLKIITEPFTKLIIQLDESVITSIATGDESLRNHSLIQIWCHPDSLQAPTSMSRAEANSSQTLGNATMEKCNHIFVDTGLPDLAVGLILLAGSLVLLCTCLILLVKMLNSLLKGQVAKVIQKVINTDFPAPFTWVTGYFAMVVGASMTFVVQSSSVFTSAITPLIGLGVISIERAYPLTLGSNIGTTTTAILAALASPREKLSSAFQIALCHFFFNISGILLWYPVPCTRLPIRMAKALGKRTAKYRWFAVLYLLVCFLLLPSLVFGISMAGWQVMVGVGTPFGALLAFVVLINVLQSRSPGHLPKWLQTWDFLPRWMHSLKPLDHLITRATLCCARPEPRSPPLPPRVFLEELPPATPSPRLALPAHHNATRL
The experiment in a line: Npt2a activity cell based assay, membrane potential dye, CHO T-REx hNpt2a cells. The conditions noted are these: doxycycline-induced, depolarization by sodium phosphate influx, average or median values if tested more than once. In a few lines: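 Doxycycline-induced (0.5 μg/mL, 24 h) CHO T-REx cells were loaded with membrane potential dye in sodium-free NHE buffer (pH 7.4) and exposed to compound (50 μM–1 nM, 5 min, room temperature).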
The compound `CCc1c(-c2ccc(F)cc2)nn(CC2CC2)c1Nc1cc(-n2nc(C)c(Cl)c2C)ncn1` [Example 115, 6-(4-chloro-3,5-dimethyl-1H-pyrazol-1-yl)-N-[1-(cyclopropylmethyl)-4-ethyl-3-(4-fluorophenyl)-1H-pyrazol-5-yl]pyrimidin-4-amine] showed a pIC50 above 8.80.
In the case of `Cc1cc(C)n(-c2cc(Nc3c(C)c(-c4ccc(OC(F)(F)F)cc4)nn3C)ncn2)n1` [Example 116, 6-(3,5-dimethyl-1H-pyrazol-1-yl)-N-{1,4-dimethyl-3-[4-(trifluoromethoxy)phenyl]-1H-pyrazol-5-yl}pyrimidin-4-amine] it was 7.03; in that of `Cc1nn(-c2cc(Nc3nn(C)c(-c4ccc(OC(F)(F)F)cc4)c3C)ncn2)c(C)c1Cl` [Example 117, 6-(4-chloro-3,5-dimethyl-1H-pyrazol-1-yl)-N-{1,4-dimethyl-5-[4-(trifluoromethoxy)phenyl]-1H-pyrazol-3-yl}pyrimidin-4-amine], 7.72; in that of `Cc1cc(C)n(-c2cc(Nc3nn(C)c(-c4ccc(C#N)cc4)c3C)ncn2)n1` [Example 118, 4-(3-{[6-(3,5-dimethyl-1H-pyrazol-1-yl)pyrimidin-4-yl]amino}-1,4-dimethyl-1H-pyrazol-5-yl)benzonitrile], 8.15.
`CCc1c(-c2ccc(F)cc2)nn(C2CC2)c1Nc1cc(-n2nc(C)cc2C)ncn1` [Example 119, N-[1-cyclopropyl-4-ethyl-3-(4-fluorophenyl)-1H-pyrazol-5-yl]-6-(3,5-dimethyl-1H-pyrazol-1-yl)pyrimidin-4-amine] showed a pIC50 of 6.06.
With `CCc1c(-c2ccc(F)cc2)nn(C2CC2)c1Nc1cc(-n2nc(C)c(Cl)c2C)ncn1` [Example 120, 6-(4-chloro-3,5-dimethyl-1H-pyrazol-1-yl)-N-[1-cyclopropyl-4-ethyl-3-(4-fluorophenyl)-1H-pyrazol-5-yl]pyrimidin-4-amine] the figure was 5.84; with `CCc1c(-c2ccc(F)cc2)nn(CC2CC2)c1Nc1cc(-n2nc(C)cc2C)ncn1` [Example 121, N-[1-(cyclopropylmethyl)-4-ethyl-3-(4-fluorophenyl)-1H-pyrazol-5-yl]-6-(3,5-dimethyl-1H-pyrazol-1-yl)pyrimidin-4-amine], above 8.80.
In turn, `COC(=O)c1ccc(-c2c(C)c(Nc3cc(-n4nc(C)cc4C)ncn3)nn2C)cc1` [Example 122, methyl 4-(3-{[6-(3,5-dimethyl-1H-pyrazol-1-yl)pyrimidin-4-yl]amino}-1,4-dimethyl-1H-pyrazol-5-yl)benzoate] showed a pIC50 of 7.60.
As to `CCc1c(Nc2cc(-n3nc(C)c(C(=O)N4CCC4)c3C)ncn2)nn(C)c1-c1ccc(F)cc1` [Example 123, azetidin-1-yl[1-(6-{[4-ethyl-5-(4-fluorophenyl)-1-methyl-1H-pyrazol-3-yl]amino}pyrimidin-4-yl)-3,5-dimethyl-1H-pyrazol-4-yl]methanone], the pIC50 is 6.40.
`CCc1c(Nc2cc(-n3nc(C)c(C(=O)N4CC(F)(F)C4)c3C)ncn2)nn(C)c1-c1ccc(F)cc1` [Example 124, (3,3-difluoroazetidin-1-yl) [1-(6-{[4-ethyl-5-(4-fluorophenyl)-1-methyl-1H-pyrazol-3-yl]amino}pyrimidin-4-yl)-3,5-dimethyl-1H-pyrazol-4-yl]methanone] had a pIC50 of 6.81.
Compound `CCc1c(Nc2cc(-n3nc(C)cc3C(C)(C)O)ncn2)nn(C)c1-c1ccc(F)cc1` [Example 125, 2-[1-(6-{[4-ethyl-5-(4-fluorophenyl)-1-methyl-1H-pyrazol-3-yl]amino}pyrimidin-4-yl)-3-methyl-1H-pyrazol-5-yl]propan-2-ol] gave a pIC50 of 7.69.
For `CCc1c(Nc2cc(-n3nc(C)c(C(=O)N4CC(F)C4)c3C)ncn2)nn(C)c1-c1ccc(F)cc1` [Example 126, [1-(6-{[4-ethyl-5-(4-fluorophenyl)-1-methyl-1H-pyrazol-3-yl]amino}pyrimidin-4-yl)-3,5-dimethyl-1H-pyrazol-4-yl](3-fluoroazetidin-1-yl)methanone], the pIC50 is 6.01.
Turning to `CCc1c(Nc2cc(-n3nc(C)c(C(=O)N(C)C)c3C)ncn2)nn(C)c1-c1ccc(F)cc1` [Example 127, 1-(6-{[4-ethyl-5-(4-fluorophenyl)-1-methyl-1H-pyrazol-3-yl]amino}pyrimidin-4-yl)-N,N,3,5-tetramethyl-1H-pyrazole-4-carboxamide], the pIC50 is 5.92.
In the case of `CCc1c(Nc2cc(-n3nc(C)c(C(=O)N4CCC(C(F)F)C4)c3C)ncn2)nn(C)c1-c1ccc(F)cc1` (stereo not drawn) [Example 128, [3-(difluoromethyl)pyrrolidin-1-yl][1-(6-{[4-ethyl-5-(4-fluorophenyl)-1-methyl-1H-pyrazol-3-yl]amino}pyrimidin-4-yl)-3,5-dimethyl-1H-pyrazol-4-yl]methanone] it was 5.89; in that of `Cc1cc(C)n(-c2cc(Nc3c(Cl)c(-c4ccc(F)cc4)nn3CC(F)F)ncn2)n1` [Example 129, N-[4-chloro-1-(2,2-difluoroethyl)-3-(4-fluorophenyl)-1H-pyrazol-5-yl]-6-(3,5-dimethyl-1H-pyrazol-1-yl)pyrimidin-4-amine], 7.11.
`Cc1nn(-c2cc(Nc3nn(CC(F)F)c(-c4ccc(F)cc4)c3Cl)ncn2)c(C)c1Cl` [Example 130, N-[4-chloro-1-(2,2-difluoroethyl)-5-(4-fluorophenyl)-1H-pyrazol-3-yl]-6-(4-chloro-3,5-dimethyl-1H-pyrazol-1-yl)pyrimidin-4-amine] gave a pIC50 of 7.55.
In turn, `CCc1c(Nc2cc(-n3nc(C)cc3C)ncn2)n[nH]c1-c1ccc(F)cc1C` [Example 131, 6-(3,5-dimethyl-1H-pyrazol-1-yl)-N-[4-ethyl-5-(4-fluoro-2-methylphenyl)-1H-pyrazol-3-yl]pyrimidin-4-amine] had a pIC50 of 5.80.
`Cc1cc(C)n(-c2cc(Nc3nn(CC(F)F)c(-c4ccc(F)cc4)c3Cl)ncn2)n1` [Example 132, N-[4-chloro-1-(2,2-difluoroethyl)-5-(4-fluorophenyl)-1H-pyrazol-3-yl]-6-(3,5-dimethyl-1H-pyrazol-1-yl)pyrimidin-4-amine] gave a pIC50 of 7.41. This pIC50 is 1.61 log units higher than that of the compound before.
As to `CCc1c(Nc2cc(-n3nc(C)c4c3CCCC4=O)ncn2)nn(C)c1-c1ccc(F)cc1` [Example 133, 1-(6-{[4-ethyl-5-(4-fluorophenyl)-1-methyl-1H-pyrazol-3-yl]amino}pyrimidin-4-yl)-3-methyl-1,5,6,7-tetrahydro-4H-indazol-4-one], the pIC50 was 7.24. The pIC50 values of the last two compounds are within 0.2 log units of each other.
Compound `Cc1cc(C)n(-c2cc(Nc3n[nH]c(-c4ccc(C#N)cc4)c3C)ncn2)n1` [Example 135, 4-(3-{[6-(3,5-dimethyl-1H-pyrazol-1-yl)pyrimidin-4-yl]amino}-4-methyl-1H-pyrazol-5-yl)benzonitrile] gave a pIC50 of 6.15.
With `CCOC(=O)c1c(C)nn(-c2cc(Nc3n[nH]c(-c4ccc(C#N)cc4)c3C)ncn2)c1C` [Example 136, ethyl 1-(6-{[5-(4-cyanophenyl)-4-methyl-1H-pyrazol-3-yl]amino}pyrimidin-4-yl)-3,5-dimethyl-1H-pyrazole-4-carboxylate], the pIC50 was 6.44.
Regarding `Cc1nn(-c2cc(Nc3n[nH]c(-c4ccc(C#N)cc4)c3C)ncn2)c(C)c1Cl` [Example 137, 4-(3-{[6-(4-chloro-3,5-dimethyl-1H-pyrazol-1-yl)pyrimidin-4-yl]amino}-4-methyl-1H-pyrazol-5-yl)benzonitrile], the negative logarithm of the IC50 (pIC50) was 7.15.
`Cc1nn(-c2cc(Nc3nn(C)c(-c4ccc(F)cc4)c3C)ncn2)c(C)c1C1(O)CC1` [Example 138, 1-[1-(6-{[5-(4-fluorophenyl)-1,4-dimethyl-1H-pyrazol-3-yl]amino}pyrimidin-4-yl)-3,5-dimethyl-1H-pyrazol-4-yl]cyclopropanol] gave a pIC50 of 6.82.
In the case of `Cc1nn(-c2cc(Nc3c(C)c(-c4ccc(F)cc4)nn3C)ncn2)c(C(F)F)c1Cl` [Example 139, 6-[4-chloro-5-(difluoromethyl)-3-methyl-1H-pyrazol-1-yl]-N-[3-(4-fluorophenyl)-1,4-dimethyl-1H-pyrazol-5-yl]pyrimidin-4-amine] it was 6.89.
With `Cc1nn(-c2cc(Nc3n[nH]c(-c4ccc(F)cc4)c3C)ncn2)c(C(F)F)c1Cl` [Example 140, 6-[4-chloro-5-(difluoromethyl)-3-methyl-1H-pyrazol-1-yl]-N-[5-(4-fluorophenyl)-4-methyl-1H-pyrazol-3-yl]pyrimidin-4-amine] the figure was 7.64.
The compound `Cc1cc(C)n(-c2cc(Nc3c(C)c(-c4ccc(C#N)cc4)nn3CC3CC3)ncn2)n1` [Example 141, 4-[1-(cyclopropylmethyl)-5-{[6-(3,5-dimethyl-1H-pyrazol-1-yl)pyrimidin-4-yl]amino}-4-methyl-1H-pyrazol-3-yl]benzonitrile] had a pIC50 of 8.52.
Consider `Cc1cc(C(F)F)n(-c2cc(Nc3c(C)c(-c4ccc(C#N)cc4)nn3CC3CC3)ncn2)n1` [Example 142, 4-[1-(cyclopropylmethyl)-5-{(6-[5-(difluoromethyl)-3-methyl-1H-pyrazol-1-yl]pyrimidin-4-yl}amino)-4-methyl-1H-pyrazol-3-yl]benzonitrile], for which the pIC50 was 8.52.
